Test [1] has as its target T1, EP1 receptors (PGE2 -induced contractions of the ileum) (Cavia porcellus, UniProt A0A286XHJ6).
T1 construct: ileum was immersed in oxygenated Krebs solution; from tissue; host or cells: guinea pig ileum
T1 sequence (A0A286XHJ6 1-405): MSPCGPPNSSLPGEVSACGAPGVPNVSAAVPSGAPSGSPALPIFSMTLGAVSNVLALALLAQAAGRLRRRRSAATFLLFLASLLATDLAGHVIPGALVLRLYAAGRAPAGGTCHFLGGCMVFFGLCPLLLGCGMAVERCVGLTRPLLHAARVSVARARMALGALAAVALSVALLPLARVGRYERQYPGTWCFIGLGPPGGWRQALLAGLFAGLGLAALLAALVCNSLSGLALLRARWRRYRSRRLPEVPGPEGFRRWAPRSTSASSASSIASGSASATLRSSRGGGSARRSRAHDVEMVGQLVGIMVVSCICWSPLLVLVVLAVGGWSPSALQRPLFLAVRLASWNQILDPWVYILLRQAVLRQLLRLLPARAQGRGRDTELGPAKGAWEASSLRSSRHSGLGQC
Kind of test: Test (a): in-vitro guinea pig ileum assay, inhibition of PGE2-induced contractions. It is filed as cell-based. The settings on record: PGE2-induced contraction, read-out: pA2 value (converted). As to the method: (a) an in-vitro guinea pig ileum assay which assesses the inhibitory properties of a test compound against PGE2 -induced contractions of the ileum; ileum was immersed in oxygenated Krebs solution containing indomethacin (4 μg/ml) and atropine (1 μM) and which was maintained at 37° C.; the ileum was subject to a tension of 1 g; a control dose response curve for PGE2 -induced contraction of the ileum was obtained; test compound (dissolved in dimethylsulphoxide) was added to the Krebs solution and a dose response curve for the PGE2 - induced contraction of the ileum in the presence of the test compound was obtained; the pA2 value for the test compound was calculated;
Prostanoid receptors and in particular receptors for PGE2 have been tentatively characterised by Kennedy et al. (Advances in Prostaglandin, Thromboxane and Leukotriene Research, 1983, 11, 327).

Test [2] concerns abdominal constriction induced by the intraperitoneal administration of phenylbenzoquinone. As to the kind of experiment: Test (b): in-vivo assay in mice, PBQ-induced abdominal constriction. The settings on record: 100 mg/kg, oral dosing. From the text: (b) an in-vivo assay in mice which assesses the inhibitory properties of a test compound against abdominal constriction induced by the intraperitoneal administration of phenylbenzoquinone (hereinafter PBQ) using the procedure disclosed in European Patent Application No. 0218077.

In another test the test system is PGE2 receptors. The settings on record: guinea pig ileum or dog fundus; cited from earlier work.

Molecules are shown by their SMILES.

As for `O=C(O)c1ccc(CN2Cc3ccccc3Oc3ccc(Cl)cc32)s1` [5-(8-chloro-10,11-dihydrodibenzo[b,f][1,4]oxazepin-10-ylmethyl)thiophene-2-carboxylic acid], in test [1], the Kb was 31.6 nM.

With `O=C(O)c1ccc(CN2Cc3ccccc3Nc3ccccc32)s1` [5-(10,11-dihydrodibenzo[b,e][1,4]diazepin-10-ylmethyl)thiophene-2-carboxylic acid], the Kb in test [1] was 25.1 nM. Moreover, the “activity in Test (b)” value in test [2] is “significant activity”.

`CC(=O)NNC(=O)N1Cc2ccccc2Oc2ccc(Cl)cc21` [SC-19220]: the “effect on PGE2 action” value in the test with PGE2 receptors is “blocks the effect of PGE2”.

The record behind these values is patent US5317101A, “Tricyclic heterocycles” (Imperial Chemical Industries PLC, priority 1991, dated 1994).
